From the supplement of paper PMC10307832

How the values were obtained:
Test in all cases: relative viability (nuclei count vs DMSO), 5 days (fraction); higher = more cells survive
Veliparib + Luminespib = compound: C[C@]1(c2nc3c(C(N)=O)cccc3[nH]2)CCCN1 [Veliparib] + CCNC(=O)c1noc(-c2cc(C(C)C)c(O)cc2O)c1-c1ccc(CN2CCOCC2)cc1 [Luminespib] (partner 0.01 µM)
Summary of the method: (§1)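 Relative viability equals treated-well nuclei counts divided by vehicle-well nuclei counts. Counts came from 4× images of lung cancer cell lines grown in 1536-well plates for 5 days after pin-tool dosing on the day after seeding. Dosing used one drug alone or a fixed anchor-drug dose plus five library-drug doses (not always all listed) in √10 steps, and values are medians of duplicate plates.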

[1] = compound: COC1=CC=C(C=C1)CN2C=CC3=C2C=C(C=C3)C(=O)NO + COc1cccc2cc(-c3nc([C@H]4CC[C@H](C(=O)O)CC4)n4ncnc(N)c34)[nH]c12 [OSI-027] (partner 0.5 µM)
Summary of the method: as §1

Veliparib + Lapatinib = compound: C[C@]1(c2nc3c(C(N)=O)cccc3[nH]2)CCCN1 [Veliparib] + CS(=O)(=O)CCNCc1ccc(-c2ccc3ncnc(Nc4ccc(OCc5cccc(F)c5)c(Cl)c4)c3c2)o1 [Lapatinib] (partner 2 µM)
Summary of the method: as §1

Veliparib + AZD7762 = compound: C[C@]1(c2nc3c(C(N)=O)cccc3[nH]2)CCCN1 [Veliparib] + NC(=O)Nc1cc(-c2cccc(F)c2)sc1C(=O)N[C@H]1CCCNC1 [AZD7762] (partner 0.2 µM)
Summary of the method: as §1

Cell Line	relative viability (Veliparib + Luminespib; first compound 0.02 µM)	relative viability (Veliparib + Luminespib; first compound 0.06325 µM)	relative viability (Veliparib + Luminespib; first compound 0.2 µM)	relative viability (Veliparib + Luminespib; first compound 0.6325 µM)	relative viability (Veliparib + Luminespib; first compound 2 µM)	relative viability ([1]; first compound 0.08 µM)	relative viability ([1]; first compound 0.253 µM)	relative viability ([1]; first compound 0.8 µM)	relative viability ([1]; first compound 8 µM)	relative viability (Veliparib + Lapatinib; first compound 0.02 µM)	relative viability (Veliparib + Lapatinib; first compound 0.06325 µM)	relative viability (Veliparib + Lapatinib; first compound 0.2 µM)	relative viability (Veliparib + Lapatinib; first compound 0.6325 µM)	relative viability (Veliparib + Lapatinib; first compound 2 µM)	relative viability (Veliparib + AZD7762; first compound 0.02 µM)	relative viability (Veliparib + AZD7762; first compound 0.06325 µM)	relative viability (Veliparib + AZD7762; first compound 0.2 µM)	relative viability (Veliparib + AZD7762; first compound 0.6325 µM)	relative viability (Veliparib + AZD7762; first compound 2 µM)	relative viability ([1]; first compound 2.53 µM)
201T	0.995	1.11	1.07	1.1	1.11	0.869	0.827	0.644	0.71	1	1.03	1.04	1.05	0.995	0.656	0.778	0.645	0.639	0.689	
A549										1.12	0.93	0.978	0.869	0.957						
A-427		0.908	0.72	1.12	0.931		0.44	0.497	0.367	1.11	1	0.994	1.04	0.802	0.768	0.719	0.755	0.724	0.782	0.492
ABC-1		0.543	0.377	0.422	0.524		0.57	0.484	0.393		1.17	1.18	0.878	1.1		0.778	0.771	0.752	0.716	0.488
BEN	0.161	0.188	0.308	0.557	0.148	0.27	0.296	0.288	0.291	0.445	0.72	0.777	0.824	0.81	0.599	0.644	0.664	0.793	0.625	0.318
CAL-12T	0.348	0.147	0.522	0.266	0.155	0.723	0.643	0.563	0.642	0.649	0.706	0.647	0.593	0.781	0.668	0.591	0.661	0.627	0.741	0.71
COR-L23	0.696	0.523	0.558	0.538	0.433	0.647	0.829	0.795	0.686	0.795	0.81	0.802	0.982	0.978						0.772
COR-L 105	0.794	0.743	0.831	0.59	0.851	0.524	0.738	0.753	0.445	0.35	0.371	0.327	0.362	0.388						0.626
Calu-6										1.14	0.985	0.96	0.971	0.989						
ChaGo-K-1	0.44	0.655	0.648	0.525	0.596		0.623	0.675	0.378						0.73	0.854	0.83	0.83	0.824	0.504
EBC-1										0.205	0.21	0.208	0.201	0.244						
EKVX	0.82	0.835	0.89	0.812	0.827	0.669	0.653	0.72	0.64	0.19	0.203	0.217	0.201	0.231		0.731	0.833	0.728	0.806	0.72
EMC-BAC-2	1.24	1.09	1.28	1.12	1.21	0.371	0.371	0.425	0.33	0.863	0.85	0.867	0.86	0.884	1.15	1.02	1.12	1.09	1.17	0.381
EPLC-272H	0.264	0.526	0.485	0.0856	0.179	0.223		0.313	0.267		0.71	0.988	1.1	0.877		0.122	0.21	0.174	0.166	0.257
H3255	0.698	0.717	0.778	0.894	0.813	0.473	0.58	0.606	0.553	0.227	0.209	0.27	0.289	0.261	1	0.893	0.816	0.756	0.857	0.545
HARA	0.82	0.778	0.782	0.639	0.416		0.522	0.535	0.42	0.748	0.57	0.86	0.743	0.853	0.346		0.302	0.308	0.573	0.553
HCC-15	0.302	0.314	0.252	0.191	0.334	0.625	0.715	0.672	0.529	0.706	0.893	0.779	0.849	0.891	1.24	1.13	1.11	1.37	1.28	0.742
HCC-44	1.09		1.12	0.917	0.985	0.465	0.453	0.498	0.454	0.986	0.85	1.01	0.933	1.07	1.04	0.913	0.936	0.934	1.07	0.554
HCC-78						0.4	0.344	0.341	0.366	0.762	0.837	0.652	0.849	0.566	0.599	0.434	0.664	0.643	0.591	0.355
HCC-366						0.486	1.03	0.978	0.772	1.06	0.897	0.929	0.974	1.09	0.233	0.253	0.174	0.164	0.231	0.896
HCC-827	0.468	0.692	0.654	0.493	0.588	0.766	0.712	0.81	0.761	0.199	0.191	0.182	0.177	0.191	0.26	0.335	0.2	0.236	0.222	0.791
HOP-62	0.831	0.858	0.783	0.669	0.836	0.729	0.888	0.909	0.758	1.14	0.878	0.951	0.99	1.12	0.567	0.65	0.621	0.463	0.598	0.871

Cell Line	relative viability (Veliparib + Luminespib; first compound 0.02 µM)	relative viability (Veliparib + Luminespib; first compound 0.06325 µM)	relative viability (Veliparib + Luminespib; first compound 0.2 µM)	relative viability (Veliparib + Luminespib; first compound 0.6325 µM)	relative viability (Veliparib + Luminespib; first compound 2 µM)	relative viability ([1]; first compound 0.08 µM)	relative viability ([1]; first compound 0.253 µM)	relative viability ([1]; first compound 0.8 µM)	relative viability ([1]; first compound 8 µM)	relative viability (Veliparib + Lapatinib; first compound 0.02 µM)	relative viability (Veliparib + Lapatinib; first compound 0.06325 µM)	relative viability (Veliparib + Lapatinib; first compound 0.2 µM)	relative viability (Veliparib + Lapatinib; first compound 0.6325 µM)	relative viability (Veliparib + Lapatinib; first compound 2 µM)	relative viability (Veliparib + AZD7762; first compound 0.02 µM)	relative viability (Veliparib + AZD7762; first compound 0.06325 µM)	relative viability (Veliparib + AZD7762; first compound 0.2 µM)	relative viability (Veliparib + AZD7762; first compound 0.6325 µM)	relative viability (Veliparib + AZD7762; first compound 2 µM)	relative viability ([1]; first compound 2.53 µM)
IA-LM										0.85	0.561	0.771	0.846	1.04						
LC-2-ad		0.947	1.04	0.982	1.03	0.793	0.853	0.826	0.671		0.813	0.967	0.94	0.951	0.606	0.822	0.865	0.876	0.801	0.979
LCLC-103H	0.987	0.888	1.04	0.907	0.992	0.441	0.529	0.534	0.397						0.794	0.73	0.702	0.75	0.687	0.388
NCI-H441	0.316	0.288	0.377	0.339	0.375	0.715	0.709	0.644	0.459						1.12	1.09	1.14	1.01	1.04	0.621
NCI-H520	0.224	0.239	0.221	0.205	0.247	0.218	0.278	0.329	0.279	0.986	0.859	0.912	0.733	0.858						0.319
NCI-H522	1.18	1.21	1.16	1.18	1.25		0.611	0.746	0.718						0.805	0.896	0.846	0.87	0.873	0.733
NCI-H661	0.863	0.931	0.839	0.785	0.934		0.78	0.727	0.625	0.413	0.483	0.56	0.447	0.533						0.658
NCI-H1299										0.972	0.944	0.951	0.956	0.978						
NCI-H1563	0.484	0.536	0.526	0.49	0.535	0.626	0.812	0.739	0.712	0.695	1.02	0.976	0.978	0.987						0.724
NCI-H1648						0.246	0.245	0.246	0.246						0.762			0.711	0.685	0.262
NCI-H1650		0.216	0.194	0.199	0.217	0.586	0.682	0.714	0.542		0.702	0.855	0.739	0.718						0.568
NCI-H1703										1.11	0.922	1.35	0.982	1.2	0.0963	0.11	0.112	0.138	0.13	
NCI-H2009	1.03	0.96	1.05	1.05	1.13	0.647	0.714	0.619	0.491	0.748	0.903	0.909	0.815	1.03						0.618
NCI-H2023	0.746	0.738	0.696	0.73	0.73	0.369	0.406	0.418	0.344	0.428	0.759	0.743	0.745	0.862						0.372
NCI-H2228	0.141	0.0988	0.145	0.123	0.154		0.536	0.594	0.473	0.968	0.889	1.11	0.96	1.06						0.729
NCI-H2342	0.687	0.729	0.594	0.972	0.666	0.61	0.66	0.603	0.655						0.392	0.543	0.417	0.471	0.405	0.57
SK-LU-1	0.227	0.195	0.232	0.199	0.22	0.358	0.316	0.34	0.352	0.868	0.835	0.966	0.823	1.02						0.284
SK-MES-1	0.827	0.467	0.897	0.735	0.898	0.639	0.626	0.62	0.583	0.5	0.413	0.438	0.473	0.473						0.638
SW 900			0.204	0.19	0.118	0.559	0.533	0.63	0.447							0.575	0.526	0.59	0.591	0.622
SW 1573	0.169	0.204	0.169	0.254	0.214		0.616	0.785	0.396	1.04	1.02	0.929	1.05	1.04						0.519
UMC-11	1.11	0.994	1.02	0.958	0.975		0.469	0.554	0.477	0.893	1	0.841	1.09	1.07						0.463
